Data reported in patent publication US20230399361A1, “MACROCYCLIC PEPTIDES” (UNIVERSITY OF NOTRE DAME DU LAC, priority 2022, published 2023).
“Also recorded” adds a separate entry of the source. *1 amine or outer side, *2 acyl side, *3 side chain or, on linkers, in order; H or OH if unused. Where a SMILES comes first, the peptide text is derived from it. Primed or numbered codes have the meaning given here. [ ]: non-standard residue; d: D form. The star is where a group is joined. aIle′ = Ile with backbone amide N-amino (hydrazide NNH2), CC[C@H](C)[C@@H](C(=O)[*:2])N(N)[*:1]; aVal = Val with backbone amide N-amino (hydrazide NNH2), CC(C)[C@@H](C(=O)[*:2])N(N)[*:1]; X2 = NN([C@@H](Cc1ccc(O)cc1)C(=O)[*:2])[*:1]; X1 = CC[C@H](C)[C@@H](C(=O)[*:2])N(N)[*:1]; N(NH2)LysNH2 = NCCCC[C@@H](C(N)=O)N(N)*; X3 = CC(C)[C@@H](C(=O)[*:2])N(N)[*:1]

Tests used:
[1] = Self-aggregation of peptides alone by ThT fluorescence; type: physicochemical; details: incubated alone in aq. NaOAc buffer, 48 h
From the text: (§1) NAP Tau Mimics Inhibit Tau Fibrilization In Vitro. We chose thioflavin T (ThT), an amyloid specific fluorescent dye that binds to β-sheet assemblies, to first evaluate the effect of NAPs on recombinant tau aggregation. For these studies, we expressed and purified full-length tau featuring a P301L mutation frequently observed in patients with frontotemporal dementia and Parkinsonism linked to chromosome 17 (FTDP-17). This missense mutation leads to local structure destabilization around the amyloid-forming region resulting in faster aggregation. Recombinant tauP301L aggregated in the presence of equimolar heparin sulfate (t1/2=6.5±0.4 h) starting with a very short 0.5 h lag phase, followed by a 24 h exponential growth phase. […] Compounds 2 and 4 are mono- and diaminated hexapeptides derived from the R2 PHF6* aggregation-prone sequence, whereas compounds 5, 6, 12, and 13 are all derived from the R3 PHF6 sequence. Several other NAPs had no effect on endpoint ThT fluorescence or lacked consistent inhibition across repeated experiments. […] NaOAc buffer, as evidenced by intense ThT fluorescence after 48 h (FIG. 1B).
Design and synthesis of aggregation-resistant backbone-aminated derivatives of mxyl-AD. The data above support the hypothesis that mxyl-AD mimetic macrocycle can engage in native-like hydrophobic cross-b interactions as well as edge-to-edge H-bonds along the fibril axis. We next sought to employ mxyl-AD as a template for the design of tau seeding inhibitors that could potentially cap fibril growth and block propagation. This required us to incorporate a chemical modification onto mxyl-AD that would preclude its ability to self-assemble without disrupting its capacity to adopt the conformation required to bind tau. We therefore designed two backbone N-amino peptide (NAP) derivatives of our tau mimic, mxyl-NAP1 and mxyl-NAP2 (Scheme 1). Each of these analogues features a backbone amide substitution that precludes canonical b-sheet H-bonding along one edge of the macrocycle, while leaving the other edge intact to engage the tau protein. […] Both mxyl-NAP1 and mxyl-NAP2, which feature a single backbone N-amino group within the amyloidogenic PHF6 module, were prepared on solid support starting from Fmoc-protected N-amino dipeptides.

tauP301L [2] = biological target: T1, tauP301L (Homo sapiens, UniProt P10636, P618L); test: Transmission electron microscopy of heparin-induced tauP301L fibrils; type: biochemical; details: 10 μM tauP301L + heparin, 20 μM NAP (2-fold molar excess), 96 h
T1 construct: we expressed and purified full-length tau featuring a P301L mutation; His6 (N); made in house; host or cells: E. coli BL21 (DE3)
T1 sequence (P10636 1-383 isoform P10636-6 P243L): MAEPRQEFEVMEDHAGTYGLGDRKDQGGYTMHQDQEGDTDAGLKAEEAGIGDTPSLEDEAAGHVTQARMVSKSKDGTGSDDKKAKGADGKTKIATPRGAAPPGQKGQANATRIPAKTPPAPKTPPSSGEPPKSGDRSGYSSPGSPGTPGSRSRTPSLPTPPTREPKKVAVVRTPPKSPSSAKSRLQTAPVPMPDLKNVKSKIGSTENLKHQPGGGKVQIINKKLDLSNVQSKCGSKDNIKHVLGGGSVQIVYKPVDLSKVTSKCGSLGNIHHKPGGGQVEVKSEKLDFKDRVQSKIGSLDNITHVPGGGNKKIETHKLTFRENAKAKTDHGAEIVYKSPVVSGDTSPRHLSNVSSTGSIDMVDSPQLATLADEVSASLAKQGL
Method: This is consistent with previous reports showing that the endpoint ThT fluorescence and fibrilization lag time for full-length tau are particularly resistant to perturbation by inhibitors. […] To confirm the effect of NAPs on the growth of mature tau fibrils, we used transmission electron microscopy (TEM) to visualize the morphology and maturity of fibrillar species. Heparin-induced tauP301L fibrils were allowed to grow over 96 h in the presence or absence of inhibitors. Untreated tauP301L afforded large, helical, and amyloid-like filamentous fibrils.
Inhibition of full-length tau fibrilization by mxyl-NAPs in TEM. To confirm the results from ThT assays, we used TEM to visualize tauP301L fibrils in the absence or presence of synthesized NAPs. As expected, heparin-induced tauP301L formed dense networks of mature fibrils (FIG. 8).
Transmission Electron Microscopy. For analyzing fibrils by TEM, aggregation was carried out under conditions similar to the assay performed above but with ThT excluded and a final reaction volume of 100 μL. Samples were incubated in a microcentrifuge tube for 4 days at 37° C. with a mixing speed of 100 rpm. A 10 μL aliquot of the sample was then applied to 400-meshed formvar-/carbon-coated copper grids and negative-stained with 2% uranyl acetate. Micrographs were obtained on a JEOL 2011 transmission electron microscope at 200 kV.

tauP301L [3] = biological target: T1, tauP301L; test: ThT fluorescence aggregation assay of recombinant tauP301L; type: biochemical; details: 20 μM NAP (2-fold molar excess), 10 μM tauP301L, heparin, 48 h
From the text: as §1
Inhibition of full-length tau aggregation by mxyl-NAPs in a ThT assay. […] TauP301L ([…]) aggregated upon incubation with heparin over the course of 2 days, leading to high ThT fluorescence. […] We also synthesized linear and scrambled controls corresponding to each of the NAP inhibitors.
ThT Fluorescence Aggregation Assay. Recombinant tauP301L (10 μM final concentration) and NAP inhibitors (20 μM final concentration) were mixed in an aggregation buffer (100 mM sodium acetate, 10 μM ThT, 10 μM heparin, 2 mM DTT, and 0.5% DMSO, pH: 7.4) in a 96-well clear bottom black plate with a final reaction volume of 200 μL. The plate was then sealed with a clear sealing film and allowed to incubate at 37° C. with continuous shaking in a Biotek Synergy H1 microplate reader. An automated method was used to carry out ThT fluorescence measurements at an excitation wavelength of 444 nm and an emission wavelength of 485 nm at an interval of every 5 min for 48 h. Experiments were carried out in technical replicates on at least 2 different days. Every experiment included control wells that lacked tauP301L, heparin, or NAPs. The average signal from control wells lacking tau was used to subtract the background fluorescence, and the average of the first and last 10 data points of tau+heparin (no inhibitor) wells, after blank subtraction, was used to normalize the data. All data plots were generated with SigmaPlot.

Compound: CC[C@H](C)[C@@H](C(=O)N[C@H](C(=O)N(N)[C@@H](Cc1ccc(O)cc1)C(=O)N[C@@H](CCCCN)C(N)=O)C(C)C)N(N)C(=O)[C@H](CCC(N)=O)NC(=O)[C@@H](NC(C)=O)C(C)C [Compound 12, Ac-Val-Gln-aIle-Val-aTyr-Lys-NH2] (Ac-VQ[X1]V[X2]K-NH2)
- self-aggregation, ThT fluorescence of peptide alone [1]: no such fluorescence
- tauP301L fibril morphology by TEM (tauP301L [2]): particularly effective at attenuating fibril growth; also recorded: non-fibrillary amorphous aggregates similar to control
- endpoint ThT fluorescence of tauP301L (tauP301L [3]): significantly reduce

Compound: CC[C@H](C)[C@H](NC(=O)[C@H](CCC(N)=O)NC(=O)[C@@H](NC(C)=O)C(C)C)C(=O)N(N)[C@H](C(=O)N[C@@H](Cc1ccc(O)cc1)C(=O)N(N)[C@@H](CCCCN)C(N)=O)C(C)C [Compound 13, Ac-Val-Gln-Ile-aVal-Tyr-aLys-NH2] (Ac-VQI[X3]Y-{N(NH2)LysNH2})
- self-aggregation, ThT fluorescence of peptide alone [1]: no such fluorescence
- tauP301L fibril morphology by TEM (tauP301L [2]): particularly effective at attenuating fibril growth; also recorded: non-fibrillary amorphous aggregates similar to control
- endpoint ThT fluorescence of tauP301L (tauP301L [3]): significantly reduce

Compound: Ac-aVal-Gln-aIle-Ile-Asn-Lys-NH2 (Ac-[aVal]Q[aIle′]INK-NH2; SMILES CC[C@H](C)[C@H](NC(=O)[C@H]([C@@H](C)CC)N(N)C(=O)[C@H](CCC(N)=O)NC(=O)[C@H](C(C)C)N(N)C(C)=O)C(=O)N[C@@H](CC(N)=O)C(=O)N[C@@H](CCCCN)C(N)=O) [Compound 4]
- self-aggregation, ThT fluorescence of peptide alone [1]: no such fluorescence
- tauP301L fibril morphology by TEM (tauP301L [2]): particularly effective at attenuating fibril growth; also recorded: non-fibrillary amorphous aggregates similar to control
- endpoint ThT fluorescence of tauP301L (tauP301L [3]): significantly reduce
